Measurements as given in patent US6407098B1, “Fungicidal aza-heterocycloalkenes” (Bayer Aktiengesellschaft, priority 1995, dated 2002).

Experiments:
Venturia inaequalis = test: Venturia test (apple)/protective; type: in vivo; conditions: protective, active compound concentration 500 ppm, evaluation 12 days after inoculation
Description: Venturia test (apple)/protective Solvent: 12.5 parts by weight of acetone Emulsifier: 0.3 parts by weight of alkylaryl polyglycol ether To produce a suitable preparation of active compound, 1 part by weight of active compound is mixed with the stated amounts of solvent and emulsifier, and the concentrate is diluted with water to the desired concentration. To test for protective activity, young plants are sprayed with the preparation of active compound until dripping wet. After the spray coating has dried on, the plants are inoculated with an aqueous conidia suspension of the apple scab causative organism Venturia inaequalis and then remain in an incubation cabin at 20° C. and 100% relative atmospheric humidity for 1 day. The plants are then placed in a greenhouse at 20° C. and a relative atmospheric humidity of about 70%. Evaluation is carried out 12 days after the inoculation.

[1] = test system: Erysiphe graminis f.sp. hordei; test: Erysiphe test (barley)/protective; type: in vivo; conditions: protective, active compound concentration 500 ppm, evaluation 7 days after inoculation
Description: Erysiphe test (barley)/protective Solvent: 12.5 parts by weight of N-methyl-pyrrolidone Emulsifier: 0.3 parts by weight of alkylaryl polyglycol ether To produce a suitable preparation of active compound, 1 part by weight of active compound is mixed with the stated amounts of solvent and emulsifier, and the concentrate is diluted with water to the desired concentration. To test for protective activity, young plants are sprayed with the preparation of active compound at the stated application rate. After the spray coating has dried on, the plants are dusted with spores of Erysiphe graminis f.sp. hordei. The plants are placed in a greenhouse at a temperature of about 20° C. and a relative atmospheric humidity of about 80%, in order to promote the development of powdery mildew pustules. Evaluation is carried out 7 days after the inoculation.

Podosphaera leucotricha = test: Podosphaera test (apple)/protective; type: in vivo; conditions: protective, active compound concentration 100 ppm, evaluation 10 days after inoculation
Description: Podosphaera test (apple)/protective Solvent: 4.7 parts by weight of acetone Emulsifier: 0.3 parts by weight of alkylaryl polyglycol ether To produce a suitable preparation of active compound, 1 part by weight of active compound is mixed with the stated amounts of solvent and emulsifier, and the concentrate is diluted with water to the desired concentration. To test for protective activity, young plants are sprayed with the preparation of active compound. After the spray coating has dried on, the plants are inoculated by dusting with conidia of the causative organism of apple mildew (Podosphaera leucotricha). The plants are then placed in a greenhouse at 23° C. and a relative atmospheric humidity of about 70%. Evaluation is carried out 10 days after the inoculation.

Sphaerotheca fuliginea = test: Sphaerotheca test (cucumber)/protective; type: in vivo; conditions: protective, active compound concentration 100 ppm, evaluation 10 days after inoculation
Description: Sphaerotheca test (cucumber)/protective Solvent: 4.7 parts by weight of acetone Emulsifier: 0.3 parts by weight of alkylaryl polyglycol ether To produce a suitable preparation of active compound, 1 part by weight of active compound is mixed with the stated amounts of solvent and emulsifier, and the concentrate is diluted with water to the desired concentration. To test for protective activity, young plants are sprayed with the preparation of active compound. After the spray coating has dried on, the plants are dusted with conidia of the fungus Sphaerotheca fuliginea. The plants are then placed in a greenhouse at 23 to 24° C. and at a relative atmospheric humidity of about 75%. Evaluation is carried out 10 days after the inoculation.

logP = type: physicochemical

`CO/N=C(/C1=NOCCN1)c1ccccc1COc1ccccc1C` [Example I-1, 3-{1-[2-(2-methylphenoxymethyl)-phenyl]-1-(methoximino)-methyl}-5,6-dihydro-4H-1,2,4-oxadiazine] gave a degree of action (Venturia inaequalis) of 100% and a degree of action [1] of 90%.
`CO/N=C(/C1=NOCCS1)c1ccccc1COc1ccccc1C` [Example I-2, 3-{1-[2-(2-methylphenoxymethyl)phenyl]-1-(methoximino)methyl}-5,6dihydro4H-1,4,2-oxathiazine] showed a degree of action (Venturia inaequalis) of 100%, a degree of action [1] of 90% and a degree of action (Podosphaera leucotricha) of 90%. For the same compound, the degree of action (Sphaerotheca fuliginea) was 96%.
For `CON=C(C1=NN(C)CCO1)c1ccccc1COc1ccccc1C` [Example I-3, 2-{1-methoximino-1-[2-(2-methylphenoxymethyl)-phenyl]-methyl}-4-methyl-5,6-dihydro4H-1,3,4oxadiazine], the logP (logP) was 3.54.
